Laboratory results as given in the OligoGym collection.
Where “and” joins values, the source holds several entries; their conditions need not be identical. Equal entries are not always repeated. After the bases stand the sugars from the 5' end (letter, count) and the backbone: PS all phosphorothioate, else s phosphorothioate and o phosphodiester by linkage. Methylation of C is not given here. e = 2'-O-(2-methoxyethyl) (MOE); k = constrained ethyl (cEt); d = 2'-deoxy (DNA)

How the values were obtained:
DGAT2 = settings: ASO
SOD1 = settings: ASO

CACCTGCTTGTACACTTCAT (sugars e5 d10 e5, PS)
target mRNA inhibition (DGAT2; HepG2, 2.5 µM): 59%
target mRNA inhibition (DGAT2; HepG2, 10 µM): 90%

ACAGTGGTGATGGGCTTGGA (sugars e5 d10 e5, PS)
target mRNA inhibition (DGAT2; HepG2, 0.12 µM): 52%

AGCTTCACCAGGGCCTCCAT (sugars e5 d10 e5, PS)
target mRNA inhibition (DGAT2; HepG2, 0.12 µM): 42%

TAATCTGCTGCTCAGAAGGC (sugars e5 d10 e5, PS)
target mRNA inhibition (DGAT2; HepG2, 0.12 µM): 36%

GTCAAACACCAGCCAAGTGA (sugars e5 d10 e5, PS)
target mRNA inhibition (DGAT2; HepG2, 0.12 µM): 15%

GGCCAAGGACAGAGGTTCAA (sugars e5 d10 e5, PS)
target mRNA inhibition (DGAT2; HepG2, 2.5 µM): 60%
target mRNA inhibition (DGAT2; HepG2, 10 µM): 87%

GCTATTCATTTTTCTGAGCC (sugars e5 d10 e5, PS)
target mRNA inhibition (DGAT2; HepG2, 0.12 µM): 47%

GCACTAAGCTAGGCACACCC (sugars e5 d10 e5, PS)
target mRNA inhibition (DGAT2; HepG2, 2.5 µM): 62%
target mRNA inhibition (DGAT2; HepG2, 10 µM): 90%

CTGAATCAAAATCTGCATTT (sugars e5 d10 e5, PS)
target mRNA inhibition (DGAT2; HepG2, 0.12 µM): 28%

TCTGATCAATTATTAACCTA (sugars e5 d10 e5, PS)
target mRNA inhibition (DGAT2; HepG2, 2.5 µM): 20%
target mRNA inhibition (DGAT2; HepG2, 10 µM): 55%

GCGGCAGAGCCAGGACTGAA (sugars e5 d10 e5, PS)
target mRNA inhibition (DGAT2; HepG2, 0.12 µM): 35%

TCACCAGGGCCTCCATGTAC (sugars e3 d14 e3, PS)
target mRNA inhibition (DGAT2; HepG2, 0.12 µM): 68%

AGGAAGGAAATGCTAGGCCT (sugars e5 d10 e5, PS)
target mRNA inhibition (DGAT2; HepG2, 0.12 µM): 64%

CCTCCAGGACCTCAGTCTCC (sugars e5 d10 e5, PS)
target mRNA inhibition (DGAT2; HepG2, 0.12 µM): 66%

GCTCAGATCACTCTGCACAG (sugars e5 d10 e5, PS)
target mRNA inhibition (DGAT2; HepG2, 2.5 µM): 77% and 81% and 82%
target mRNA inhibition (DGAT2; HepG2, 10 µM): 90% and 86% and 89%

GTAAGCCTCGGTGTCCTCTC (sugars e5 d10 e5, PS)
target mRNA inhibition (DGAT2; HepG2, 2.5 µM): 91%
target mRNA inhibition (DGAT2; HepG2, 10 µM): 85%

GCTGCATCCATGTCATCAGC (sugars e2 d16 e2, PS)
target mRNA inhibition (DGAT2; HepG2, 0.12 µM): 53%

TCACCAGCTGGATGGGAAAG (sugars e5 d10 e5, PS)
target mRNA inhibition (DGAT2; HepG2, 0.12 µM): 22%

GCCACTCAGCCTTGGAGCCA (sugars e5 d10 e5, PS)
target mRNA inhibition (DGAT2; HepG2, 2.5 µM): 90% and 83%
target mRNA inhibition (DGAT2; HepG2, 10 µM): 86% and 85%

ACAAAGCCCTTGCGGTTCCG (sugars e5 d10 e5, PS)
target mRNA inhibition (DGAT2; HepG2, 0.12 µM): 35%

GGTTGTGTGTCTTCACCAGC (sugars e3 d14 e3, PS)
target mRNA inhibition (DGAT2; HepG2, 0.12 µM): 70%

ATCCATGTCATCAGCCACCC (sugars e5 d10 e5, PS)
target mRNA inhibition (DGAT2; HepG2, 2.5 µM): 61% and 63%
target mRNA inhibition (DGAT2; HepG2, 10 µM): 86% and 80%

TGTTGCCATCATACTAGACT (sugars e5 d10 e5, PS)
target mRNA inhibition (DGAT2; HepG2, 2.5 µM): 64%
target mRNA inhibition (DGAT2; HepG2, 10 µM): 75%

GTGTGTCTTCACCAGCTGGA (sugars e5 d10 e5, PS)
target mRNA inhibition (DGAT2; HepG2, 0.12 µM): 53%

TAGCATTGCCACTCCCATTC (sugars e5 d10 e5, PS)
target mRNA inhibition (DGAT2; HepG2, 0.12 µM): 71%

ACCATAATCTGCACAGGTTC (sugars e5 d10 e5, PS)
target mRNA inhibition (DGAT2; HepG2, 2.5 µM): 62%
target mRNA inhibition (DGAT2; HepG2, 10 µM): 84%

TGATAGCATTGCCACTCCCA (sugars e2 d13 e5, PS)
target mRNA inhibition (DGAT2; HepG2, 0.12 µM): 69%

GTGGGAAAGGCACAGGCTTT (sugars e5 d10 e5, PS)
target mRNA inhibition (DGAT2; HepG2, 0.12 µM): 53%

GTACACTTCATTCTCTCCAA (sugars e5 d10 e5, PS)
target mRNA inhibition (DGAT2; HepG2, 0.12 µM): 82%

ACCAGGGCCTCCATGTACAT (sugars e2 d13 e5, PS)
target mRNA inhibition (DGAT2; HepG2, 0.12 µM): 50%

GTGCTCTCCAACTCCTCCCC (sugars e5 d10 e5, PS)
target mRNA inhibition (DGAT2; HepG2, 0.12 µM): 34%

GAACTTCTTCTGGACCCATC (sugars e5 d10 e5, PS)
target mRNA inhibition (DGAT2; HepG2, 0.12 µM): 19%

CGCAGGACCCCGGAGTAGGC (sugars e5 d10 e5, PS)
target mRNA inhibition (DGAT2; HepG2, 0.12 µM): 75% and 70%

CACTAATTCTGGGCTTCCAG (sugars e5 d10 e5, PS)
target mRNA inhibition (DGAT2; HepG2, 2.5 µM): 64%
target mRNA inhibition (DGAT2; HepG2, 10 µM): 96%

GTTGCAATGTTGCCATC (sugars e3 d10 e4, PS)
target mRNA inhibition (DGAT2; HepG2, 2.5 µM): 69% and 75%
target mRNA inhibition (DGAT2; HepG2, 10 µM): 89% and 96%

GTCATACTTACTGTTCAGCA (sugars e5 d10 e5, PS)
target mRNA inhibition (DGAT2; HepG2, 2.5 µM): 78% and 65%
target mRNA inhibition (DGAT2; HepG2, 10 µM): 94% and 91%

GCATTCTTGCCAGGCATGGA (sugars e5 d10 e5, PS)
target mRNA inhibition (DGAT2; HepG2, 2.5 µM): 41%
target mRNA inhibition (DGAT2; HepG2, 10 µM): 74%

GCACTGCAGGCCACTCCCAG (sugars e5 d10 e5, PS)
target mRNA inhibition (DGAT2; HepG2, 0.12 µM): 37%

CAAGGCTGAGTCTGTGCTGC (sugars e5 d10 e5, PS)
target mRNA inhibition (DGAT2; HepG2, 0.12 µM): 24%

TTTAAATAACCCACAGACAC (sugars e5 d10 e5, PS)
target mRNA inhibition (DGAT2; HepG2, 0.12 µM): 14%

ACAGTGTTTAATGTTTA (sugars e2 k2 d8 k2 e3, PS)
target mRNA inhibition (SOD1; HepG2, 0.1875 µM): 39%
target mRNA inhibition (SOD1; HepG2, 0.75 µM): 69%
target mRNA inhibition (SOD1; HepG2, 3 µM): 82%
target mRNA inhibition (SOD1; HepG2, 4 µM): 78%
target mRNA inhibition (SOD1; HepG2, 5 µM): 83%
target mRNA inhibition (SOD1; HepG2, 12 µM): 84% and 86%

ACCTCCGCGCCTCGCCCACT (sugars e5 d10 e5, PS)
target mRNA inhibition (SOD1; HepG2, 4 µM): 63% and 77%
target mRNA inhibition (SOD1; HepG2, 12 µM): 92%

GTGATCATAAATCAGTT (sugars e2 k2 d9 k2 e2, PS)
target mRNA inhibition (SOD1; HepG2, 5 µM): 48%

AATTACACTTTTAAGATTAC (sugars e5 d10 e5, PS)
target mRNA inhibition (SOD1; HepG2, 5 µM): 1%

CATGCAGGCCTTCAGTCAGT (sugars e5 d10 e5, PS)
target mRNA inhibition (SOD1; HepG2, 5 µM): 37% and 33%

TAGACACATCGGCCACACCA (sugars e5 d10 e5, PS)
target mRNA inhibition (SOD1; HepG2, 5 µM): 46% and 36%

TTTATTGGGCGATCCCA (sugars e3 k2 d7 k2 e3, PS)
target mRNA inhibition (SOD1; HepG2, 3 µM): 20%

ACCATCTTTGTCAGCAGTCA (sugars e5 d10 e5, PS)
target mRNA inhibition (SOD1; HepG2, 5 µM): 41% and 30%

GTTTATTGGGCGATCCC (sugars e3 k2 d7 k2 e3, PS)
target mRNA inhibition (SOD1; HepG2, 3 µM): 18%

CCTCAGACTACATCCAA (sugars e3 k2 d7 k2 e3, PS)
target mRNA inhibition (SOD1; HepG2, 0.1875 µM): 16%
target mRNA inhibition (SOD1; HepG2, 0.75 µM): 42%
target mRNA inhibition (SOD1; HepG2, 3 µM): 58% and 70%
target mRNA inhibition (SOD1; HepG2, 12 µM): 84%
